Experimental data reported in patent US9211310B2, “Use of a Chinese medicine composition in preparing medicaments for treating secondary prevention of myocardial infarction” (TASLY PHARMACEUTICAL GROUP CO., LTD, priority 2010, dated 2015).

Test system: patients after acute myocardial infarction
Experiment: Life quality, Seattle Angina Questionnaire (SAQ), same clinical trial
Format: in vivo, human
Description: 3508 patients who were in accordance with the diagnostic standards of AMI for 28 days to 2 years and differentiated as Qi deficiency and blood stagnation syndrome by TCM were studied. 0.5 g Chinese medicine composition prepared by the method of EXAMPLE 1 (Coded as QSYQ) was administrated half an hour after meal, 3 times per day.
There were 19 questions in the Seattle angina questionnaire (SAQ), including 5 parts: physical limitation (PL), anginal stability (AS), anginal frequency (AF), treatment satisfaction (TS) and disease perception (DP). After being given necessary explanation by doctors, the questions were answered independently by patients.
They included the overall survival time, angina pectoris score, TCM symptom score and life quality score, where angina pectoris score, TCM symptom score and life quality score were evaluated at randomization, in 1st, 3rd, 6th, 9th, 12th month after treatment and 18th month after follow-up.
All evaluation results of SAQ were described during the period of observation, and Wilcoxon rank sum test was used for inter-group comparison.
The evaluation results in the SAQ were depicted in different observations, and inter-group comparison was tested by Wilcoxon Rank-sum test.

## CC(=O)Oc1ccccc1C(=O)O [Control group, aspirine]
6 months after treatment, FAS
  SAQ Question 1-3: Not limited, number of patients: 1358
  SAQ Question 1-3: Not limited, percent of patients: (77.87%)
  SAQ Question 1-3: Other reasons, number of patients: 11
  SAQ Question 1-3: Other reasons, percent of patients: (0.63%)
  SAQ Question 1-3: Severely limited, number of patients: 4
  SAQ Question 1-3: Severely limited, percent of patients: (0.23%)
  SAQ Question 1-3: Slightly limited, number of patients: 265
  SAQ Question 1-3: Slightly limited, percent of patients: (15.19%)
  SAQ Question 1-4: Mildly limited, number of patients: 314
  SAQ Question 1-4: Mildly limited, percent of patients: (18.00%)
  SAQ Question 1-4: Moderately limited, number of patients: 97
  SAQ Question 1-4: Moderately limited, percent of patients: (5.56%)
  SAQ Question 1-4: Not limited, number of patients: 731
  SAQ Question 1-4: Not limited, percent of patients: (41.92%)
  SAQ Question 1-4: Other reasons, number of patients: 13
  SAQ Question 1-4: Other reasons, percent of patients: (0.75%)
  SAQ Question 1-4: Severely limited, number of patients: 29
  SAQ Question 1-4: Severely limited, percent of patients: (1.66%)
  SAQ Question 1-4: Slightly limited, number of patients: 560
  SAQ Question 1-4: Slightly limited, percent of patients: (32.11%)
  SAQ Question 1-5: Mildly limited, number of patients: 292
  SAQ Question 1-5: Mildly limited, percent of patients: (16.75%)
  SAQ Question 1-5: Moderately limited, number of patients: 137
  SAQ Question 1-5: Moderately limited, percent of patients: (7.86%)
  SAQ Question 1-5: Not limited, number of patients: 755
  SAQ Question 1-5: Not limited, percent of patients: (43.32%)
  SAQ Question 1-5: Other reasons, number of patients: 13
  SAQ Question 1-5: Other reasons, percent of patients: (0.75%)
  SAQ Question 1-5: Severely limited, number of patients: 20
  SAQ Question 1-5: Severely limited, percent of patients: (1.15%)
  SAQ Question 1-5: Slightly limited, number of patients: 526
  SAQ Question 1-5: Slightly limited, percent of patients: (30.18%)
  SAQ Question 1-9: Mildly limited, % of cases: (19.93%)
  SAQ Question 1-9: Mildly limited, cases: 341
  SAQ Question 1-9: Moderately limited, % of cases: (20.86%)
  SAQ Question 1-9: Moderately limited, cases: 357
  SAQ Question 1-9: Not limited, % of cases: (3.39%)
  SAQ Question 1-9: Not limited, cases: 58
  SAQ Question 1-9: Other limited, % of cases: (6.20%)
  SAQ Question 1-9: Other limited, cases: 106
  SAQ Question 1-9: Severely limited, % of cases: (35.42%)
  SAQ Question 1-9: Severely limited, cases: 606
  SAQ Question 1-9: Slightly limited, % of cases: (14.20%)
  SAQ Question 1-9: Slightly limited, cases: 243
6 months after treatment, PP
  SAQ 2nd question: Clearly increased, % of cases: (0.21%)
  SAQ 2nd question: Clearly increased, cases: 3
  SAQ 2nd question: Clearly reduced, % of cases: (24.52%)
  SAQ 2nd question: Clearly reduced, cases: 355
  SAQ 2nd question: Same, % of cases: (36.46%)
  SAQ 2nd question: Same, cases: 528
  SAQ 2nd question: Slightly increased, % of cases: (2.76%)
  SAQ 2nd question: Slightly increased, cases: 40
  SAQ 2nd question: Slightly reduced, % of cases: (36.05%)
  SAQ 2nd question: Slightly reduced, cases: 522
  SAQ 3rd question: 1-2 times per week, % of cases: (36.05%)
  SAQ 3rd question: 1-2 times per week, cases: 522
  SAQ 3rd question: 1-3 times per day, % of cases: (2.76%)
  SAQ 3rd question: 1-3 times per day, cases: 40
  SAQ 3rd question: <1 time per week, % of cases: (24.52%)
  SAQ 3rd question: <1 time per week, cases: 355
  SAQ 3rd question: No onset, % of cases: (0.00%)
  SAQ 3rd question: No onset, cases: 0
  SAQ 3rd question: ≧3 times per week, % of cases: (36.46%)
  SAQ 3rd question: ≧3 times per week, cases: 528
  SAQ 3rd question: ≧4 times per day, % of cases: (0.21%)
  SAQ 3rd question: ≧4 times per day, cases: 3
  SAQ Question 1-3: Mildly limited, number of patients: 65
  SAQ Question 1-3: Mildly limited, percent of patients: (4.48%)
  SAQ Question 1-3: Moderately limited, number of patients: 14
  SAQ Question 1-3: Moderately limited, percent of patients: (0.97%)
  SAQ Question 1-3: Not limited, number of patients: 1131
  SAQ Question 1-3: Not limited, percent of patients: (78.00%)
  SAQ Question 1-3: Other reasons, number of patients: 9
  SAQ Question 1-3: Other reasons, percent of patients: (0.62%)
  SAQ Question 1-3: Severely limited, number of patients: 4
  SAQ Question 1-3: Severely limited, percent of patients: (0.28%)
  SAQ Question 1-3: Slightly limited, number of patients: 227
  SAQ Question 1-3: Slightly limited, percent of patients: (15.66%)
  SAQ Question 1-4: Mildly limited, number of patients: 266
  SAQ Question 1-4: Mildly limited, percent of patients: (18.37%)
  SAQ Question 1-4: Moderately limited, number of patients: 74
  SAQ Question 1-4: Moderately limited, percent of patients: (5.11%)
  SAQ Question 1-4: Not limited, number of patients: 613
  SAQ Question 1-4: Not limited, percent of patients: (42.33%)
  SAQ Question 1-4: Other reasons, number of patients: 12
  SAQ Question 1-4: Other reasons, percent of patients: (0.83%)
  SAQ Question 1-4: Severely limited, number of patients: 20
  SAQ Question 1-4: Severely limited, percent of patients: (1.38%)
  SAQ Question 1-4: Slightly limited, number of patients: 463
  SAQ Question 1-4: Slightly limited, percent of patients: (31.98%)
  SAQ Question 1-5: Mildly limited, number of patients: 244
  SAQ Question 1-5: Mildly limited, percent of patients: (16.86%)
  SAQ Question 1-5: Moderately limited, number of patients: 109
  SAQ Question 1-5: Moderately limited, percent of patients: (7.53%)
  SAQ Question 1-5: Not limited, number of patients: 637
  SAQ Question 1-5: Not limited, percent of patients: (44.02%)
  SAQ Question 1-5: Other reasons, number of patients: 12
  SAQ Question 1-5: Other reasons, percent of patients: (0.83%)
  SAQ Question 1-5: Severely limited, number of patients: 12
  SAQ Question 1-5: Severely limited, percent of patients: (0.83%)
  SAQ Question 1-5: Slightly limited, number of patients: 433
  SAQ Question 1-5: Slightly limited, percent of patients: (29.92%)
  SAQ Question 1-9: Mildly limited, % of cases: (20.47%)
  SAQ Question 1-9: Mildly limited, cases: 289
  SAQ Question 1-9: Moderately limited, % of cases: (21.60%)
  SAQ Question 1-9: Moderately limited, cases: 305
  SAQ Question 1-9: Not limited, % of cases: (3.54%)
  SAQ Question 1-9: Not limited, cases: 50
  SAQ Question 1-9: Other limited, % of cases: (6.37%)
  SAQ Question 1-9: Other limited, cases: 90
  SAQ Question 1-9: Severely limited, % of cases: (34.70%)
  SAQ Question 1-9: Severely limited, cases: 490
  SAQ Question 1-9: Slightly limited, % of cases: (13.31%)
  SAQ Question 1-9: Slightly limited, cases: 188
9 months after treatment, FAS
  SAQ 2nd question: 6, % of cases: (0.00%)
  SAQ 2nd question: 6, cases: 0
  SAQ 2nd question: Clearly increased, % of cases: (1.44%)
  SAQ 2nd question: Clearly increased, cases: 25
  SAQ 2nd question: Clearly reduced, % of cases: (24.17%)
  SAQ 2nd question: Clearly reduced, cases: 421
  SAQ 2nd question: Same, % of cases: (35.94%)
  SAQ 2nd question: Same, cases: 626
  SAQ 2nd question: Slightly increased, % of cases: (3.96%)
  SAQ 2nd question: Slightly increased, cases: 69
  SAQ 2nd question: Slightly reduced, % of cases: (34.50%)
  SAQ 2nd question: Slightly reduced, cases: 601
  SAQ 3rd question: 1-2 times per week, % of cases: (34.50%)
  SAQ 3rd question: 1-2 times per week, cases: 601
  SAQ 3rd question: 1-3 times per day, % of cases: (3.96%)
  SAQ 3rd question: 1-3 times per day, cases: 69
  SAQ 3rd question: <1 time per week, % of cases: (24.17%)
  SAQ 3rd question: <1 time per week, cases: 421
  SAQ 3rd question: No onset, % of cases: (0.00%)
  SAQ 3rd question: No onset, cases: 0
  SAQ 3rd question: ≧3 times per week, % of cases: (35.94%)
  SAQ 3rd question: ≧3 times per week, cases: 626
  SAQ 3rd question: ≧4 times per day, % of cases: (1.44%)
  SAQ 3rd question: ≧4 times per day, cases: 25
  SAQ Question 1-3: Mildly limited, number of patients: 58
  SAQ Question 1-3: Mildly limited, percent of patients: (3.33%)
  SAQ Question 1-3: Moderately limited, number of patients: 17
  SAQ Question 1-3: Moderately limited, percent of patients: (0.97%)
  SAQ Question 1-3: Not limited, number of patients: 1421
  SAQ Question 1-3: Not limited, percent of patients: (81.48%)
  SAQ Question 1-3: Other reasons, number of patients: 8
  SAQ Question 1-3: Other reasons, percent of patients: (0.46%)
  SAQ Question 1-3: Severely limited, number of patients: 2
  SAQ Question 1-3: Severely limited, percent of patients: (0.11%)
  SAQ Question 1-3: Slightly limited, number of patients: 238
  SAQ Question 1-3: Slightly limited, percent of patients: (13.65%)
  SAQ Question 1-4: Mildly limited, number of patients: 264
  SAQ Question 1-4: Mildly limited, percent of patients: (15.14%)
  SAQ Question 1-4: Moderately limited, number of patients: 85
  SAQ Question 1-4: Moderately limited, percent of patients: (4.87%)
